Values of other authors in publication PMC3349014 (Journal of the American Chemical Society, 2012).

Settings: over 3 h

Substance	Rat plasma levels after IV injection
Ac-Im-Py-Py-γ-Im-Py-Py-β-Dp [compound 1035]	drop to low percent over 3 h
Ac-Py-Py-β-Py-Im-Py-γ-Py-Py-Py-β-Im-Py-β-Dp [compound 1666]	drop to low percent over 3 h
